Experimental data from article PMC3399817 (PLoS ONE, 2012).
pIC50: −log10 of the molar value.

Experiments:
[1] = target: T1, NEK1 (Homo sapiens, UniProt Q96PY6); assay: SelectScreen in vitro kinase IC50; type: biochemical
T1 construct: purchased Ambit KINOMEscan (DiscoverX)
T1 sequence (Q96PY6 1-1258): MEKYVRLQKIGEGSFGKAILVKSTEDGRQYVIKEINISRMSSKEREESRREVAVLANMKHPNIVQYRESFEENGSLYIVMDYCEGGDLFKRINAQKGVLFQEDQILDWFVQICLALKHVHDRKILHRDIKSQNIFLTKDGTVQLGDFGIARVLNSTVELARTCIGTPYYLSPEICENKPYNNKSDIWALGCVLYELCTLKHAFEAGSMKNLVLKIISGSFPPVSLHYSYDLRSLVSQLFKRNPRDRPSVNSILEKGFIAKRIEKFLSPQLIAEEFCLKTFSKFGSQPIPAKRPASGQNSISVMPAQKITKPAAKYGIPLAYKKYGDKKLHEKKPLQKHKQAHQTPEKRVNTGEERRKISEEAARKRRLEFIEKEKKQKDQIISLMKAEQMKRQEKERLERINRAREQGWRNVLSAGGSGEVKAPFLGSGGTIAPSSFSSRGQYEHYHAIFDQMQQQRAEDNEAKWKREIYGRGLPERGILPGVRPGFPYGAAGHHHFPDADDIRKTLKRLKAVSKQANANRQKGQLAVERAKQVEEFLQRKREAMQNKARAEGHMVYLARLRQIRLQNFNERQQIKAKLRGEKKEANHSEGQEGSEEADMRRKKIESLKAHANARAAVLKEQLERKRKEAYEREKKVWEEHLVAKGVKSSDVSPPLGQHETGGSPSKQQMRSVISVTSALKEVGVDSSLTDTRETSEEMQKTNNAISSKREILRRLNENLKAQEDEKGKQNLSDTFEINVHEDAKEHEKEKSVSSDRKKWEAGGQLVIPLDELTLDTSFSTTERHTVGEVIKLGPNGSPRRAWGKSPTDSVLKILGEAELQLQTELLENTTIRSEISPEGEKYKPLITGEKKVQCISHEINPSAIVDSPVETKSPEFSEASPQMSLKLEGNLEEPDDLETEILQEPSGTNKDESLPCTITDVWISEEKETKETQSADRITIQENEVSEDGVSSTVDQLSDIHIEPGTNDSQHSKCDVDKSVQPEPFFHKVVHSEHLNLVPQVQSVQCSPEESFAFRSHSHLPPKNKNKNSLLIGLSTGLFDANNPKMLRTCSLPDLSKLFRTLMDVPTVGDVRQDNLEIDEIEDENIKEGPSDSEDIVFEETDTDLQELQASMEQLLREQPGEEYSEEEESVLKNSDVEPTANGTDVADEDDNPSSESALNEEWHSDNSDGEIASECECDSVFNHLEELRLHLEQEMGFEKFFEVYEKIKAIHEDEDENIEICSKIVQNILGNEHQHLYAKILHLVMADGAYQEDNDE
Method: (§1) First, we used Ambit's KINOMEscan™ technology to identify those kinases that are inhibited for substrate binding by the compounds, all assayed at 1 μM. Second, we used Invitrogen's SelectScreen® Biochemical Kinase Profiling Service to determine the in vitro IC50s for the compounds against specific kinases.

[2] = target: T2, HIPK1 (Homo sapiens, UniProt Q86Z02); assay: SelectScreen in vitro kinase IC50; type: biochemical
T2 construct: purchased Ambit KINOMEscan (DiscoverX)
Method: as §1

[3] = target: T3, MAP4K2 (Homo sapiens, UniProt Q12851); assay: SelectScreen in vitro kinase IC50; type: biochemical; conditions: Fig. S5
T3 construct: purchased Ambit KINOMEscan (DiscoverX)
T3 sequence (Q12851 1-820): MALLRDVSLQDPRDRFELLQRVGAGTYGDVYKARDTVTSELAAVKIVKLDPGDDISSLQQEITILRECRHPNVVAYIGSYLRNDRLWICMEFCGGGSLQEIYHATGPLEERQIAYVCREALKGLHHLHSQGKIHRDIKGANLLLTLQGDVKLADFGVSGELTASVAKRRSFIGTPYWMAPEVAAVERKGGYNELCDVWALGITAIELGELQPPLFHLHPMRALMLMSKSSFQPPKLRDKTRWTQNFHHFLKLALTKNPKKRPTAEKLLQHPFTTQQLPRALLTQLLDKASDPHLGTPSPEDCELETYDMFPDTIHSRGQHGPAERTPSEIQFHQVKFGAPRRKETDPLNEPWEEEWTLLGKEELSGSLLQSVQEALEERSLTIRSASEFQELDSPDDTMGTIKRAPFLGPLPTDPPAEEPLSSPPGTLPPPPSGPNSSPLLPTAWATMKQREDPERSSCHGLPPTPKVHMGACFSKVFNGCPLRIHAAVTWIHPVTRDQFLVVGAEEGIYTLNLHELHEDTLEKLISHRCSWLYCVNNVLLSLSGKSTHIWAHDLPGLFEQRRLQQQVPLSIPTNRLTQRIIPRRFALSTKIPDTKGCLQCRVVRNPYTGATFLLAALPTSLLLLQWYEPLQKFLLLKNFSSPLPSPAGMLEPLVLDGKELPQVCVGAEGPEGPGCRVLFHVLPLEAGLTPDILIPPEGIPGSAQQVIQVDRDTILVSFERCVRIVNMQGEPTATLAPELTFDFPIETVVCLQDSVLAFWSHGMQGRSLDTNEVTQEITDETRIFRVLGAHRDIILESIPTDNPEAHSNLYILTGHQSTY
Method: as §1

[4] = target: T4, KIT(A829P) (Homo sapiens, UniProt P10721, A829P); assay: KINOMEscan; type: binding; conditions: 1 uM
T4 construct: purchased Ambit KINOMEscan (DiscoverX)
Procedure, shortened: (§2)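 First-pass selectivity screen: compound at 1 μM, endpoint is whether substrate binding to each kinase is suppressed.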

[5] = target: T5, CASK (Homo sapiens, UniProt O14936); assay: KINOMEscan; type: binding; conditions: 1 uM
T5 construct: purchased Ambit KINOMEscan (DiscoverX)
Procedure, shortened: as §2

[6] = target: T6, ABL1(F317L)-phosphorylated (Homo sapiens, UniProt P00519, F317L); assay: KINOMEscan; type: binding; conditions: 1 uM
T6 construct: purchased Ambit KINOMEscan (DiscoverX)
Procedure, shortened: as §2

[7] = target: T7, ABL1(F317I)-phosphorylated (Homo sapiens, UniProt P00519, F317I); assay: KINOMEscan; type: binding; conditions: 1 uM
T7 construct: purchased Ambit KINOMEscan (DiscoverX)
Procedure, shortened: as §2

[8] = target: T8, PFPK5(P.falciparum) (Plasmodium falciparum, UniProt P61075); assay: KINOMEscan; type: binding; conditions: 1 uM
T8 construct: purchased Ambit KINOMEscan (DiscoverX)
Procedure, shortened: as §2

[9] = target: T9, PIK3CA(I800L) (Homo sapiens, UniProt P42336, I800L); assay: KINOMEscan; type: binding; conditions: 1 uM
T9 construct: purchased Ambit KINOMEscan (DiscoverX)
Procedure, shortened: as §2

[10] = target: T10, BLK (Homo sapiens, UniProt P51451); assay: KINOMEscan; type: binding; conditions: 1 uM
T10 construct: purchased Ambit KINOMEscan (DiscoverX)
Procedure, shortened: as §2

[11] = target: T11, PFCDPK1(P.falciparum) (Plasmodium falciparum, UniProt P62344); assay: KINOMEscan; type: binding; conditions: 1 uM
T11 construct: purchased Ambit KINOMEscan (DiscoverX)
Procedure, shortened: as §2

[12] = target: T12, EGFR(L747-E749del, A750P) (Homo sapiens, UniProt P00533, A750P/DEL747-749); assay: KINOMEscan; type: binding; conditions: 1 uM
T12 construct: purchased Ambit KINOMEscan (DiscoverX)
Procedure, shortened: as §2

[13] = target: T13, SGK3 (Homo sapiens, UniProt Q96BR1); assay: KINOMEscan; type: binding; conditions: SGK3, 1 uM
T13 construct: purchased Ambit KINOMEscan (DiscoverX)
Procedure, shortened: as §2

[14] = target: T14, MST1R (Homo sapiens, UniProt Q04912); assay: KINOMEscan; type: binding; conditions: 1 uM
T14 construct: purchased Ambit KINOMEscan (DiscoverX)
Procedure, shortened: as §2

T7 sequence (P00519 whole entry F317I): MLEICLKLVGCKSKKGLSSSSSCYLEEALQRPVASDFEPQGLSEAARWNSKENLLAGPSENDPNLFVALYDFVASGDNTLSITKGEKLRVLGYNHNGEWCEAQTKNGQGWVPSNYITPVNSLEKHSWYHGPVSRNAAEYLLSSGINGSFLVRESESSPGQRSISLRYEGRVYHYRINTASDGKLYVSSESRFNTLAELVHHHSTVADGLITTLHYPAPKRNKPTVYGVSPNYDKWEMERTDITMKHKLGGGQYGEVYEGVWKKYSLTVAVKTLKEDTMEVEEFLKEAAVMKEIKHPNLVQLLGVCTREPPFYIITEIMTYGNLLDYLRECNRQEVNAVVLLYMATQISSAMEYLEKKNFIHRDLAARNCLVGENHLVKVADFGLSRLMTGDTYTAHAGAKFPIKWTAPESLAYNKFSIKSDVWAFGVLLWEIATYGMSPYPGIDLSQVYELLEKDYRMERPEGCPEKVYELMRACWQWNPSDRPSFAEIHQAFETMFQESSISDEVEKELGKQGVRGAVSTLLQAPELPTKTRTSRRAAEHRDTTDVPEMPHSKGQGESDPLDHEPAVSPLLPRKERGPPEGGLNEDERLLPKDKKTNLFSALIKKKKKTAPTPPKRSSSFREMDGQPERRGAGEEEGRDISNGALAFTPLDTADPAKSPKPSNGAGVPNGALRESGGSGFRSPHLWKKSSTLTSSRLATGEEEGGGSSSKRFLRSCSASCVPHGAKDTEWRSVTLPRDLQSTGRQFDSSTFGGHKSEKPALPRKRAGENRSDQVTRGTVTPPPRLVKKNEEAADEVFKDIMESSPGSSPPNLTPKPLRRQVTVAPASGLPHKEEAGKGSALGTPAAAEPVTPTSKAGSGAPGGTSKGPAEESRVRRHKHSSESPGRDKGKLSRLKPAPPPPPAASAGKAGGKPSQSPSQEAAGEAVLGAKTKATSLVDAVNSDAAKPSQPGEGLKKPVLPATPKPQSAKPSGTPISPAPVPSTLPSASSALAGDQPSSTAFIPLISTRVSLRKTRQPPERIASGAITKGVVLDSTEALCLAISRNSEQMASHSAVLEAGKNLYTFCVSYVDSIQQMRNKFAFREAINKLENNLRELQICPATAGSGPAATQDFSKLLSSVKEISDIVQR
T5 sequence (O14936 whole entry): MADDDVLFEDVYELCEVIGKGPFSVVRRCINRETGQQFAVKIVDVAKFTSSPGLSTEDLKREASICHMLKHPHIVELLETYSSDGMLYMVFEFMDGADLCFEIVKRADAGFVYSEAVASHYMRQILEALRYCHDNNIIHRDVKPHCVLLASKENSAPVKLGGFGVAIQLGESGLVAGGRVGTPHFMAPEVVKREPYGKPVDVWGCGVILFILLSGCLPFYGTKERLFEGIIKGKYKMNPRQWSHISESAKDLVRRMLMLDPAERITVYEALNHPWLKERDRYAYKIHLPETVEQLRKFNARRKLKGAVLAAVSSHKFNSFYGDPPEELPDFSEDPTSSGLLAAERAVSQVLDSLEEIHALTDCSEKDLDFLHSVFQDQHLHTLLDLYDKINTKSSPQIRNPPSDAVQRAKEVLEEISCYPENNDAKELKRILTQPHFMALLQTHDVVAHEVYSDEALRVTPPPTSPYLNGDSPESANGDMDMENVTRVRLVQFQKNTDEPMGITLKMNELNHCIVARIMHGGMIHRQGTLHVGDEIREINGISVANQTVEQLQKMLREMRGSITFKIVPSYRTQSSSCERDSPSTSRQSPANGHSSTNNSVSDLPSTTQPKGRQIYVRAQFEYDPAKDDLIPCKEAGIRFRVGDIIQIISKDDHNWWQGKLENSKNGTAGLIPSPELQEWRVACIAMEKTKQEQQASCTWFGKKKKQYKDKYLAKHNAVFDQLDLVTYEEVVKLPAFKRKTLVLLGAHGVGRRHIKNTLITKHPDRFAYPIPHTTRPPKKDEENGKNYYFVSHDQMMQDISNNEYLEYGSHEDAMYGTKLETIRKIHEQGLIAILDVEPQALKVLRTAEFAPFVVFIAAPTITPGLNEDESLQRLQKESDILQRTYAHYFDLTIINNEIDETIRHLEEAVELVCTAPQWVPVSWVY
T12 sequence (P00533 with tags, fused parts or gaps DEL747-749/A750P limits assumed): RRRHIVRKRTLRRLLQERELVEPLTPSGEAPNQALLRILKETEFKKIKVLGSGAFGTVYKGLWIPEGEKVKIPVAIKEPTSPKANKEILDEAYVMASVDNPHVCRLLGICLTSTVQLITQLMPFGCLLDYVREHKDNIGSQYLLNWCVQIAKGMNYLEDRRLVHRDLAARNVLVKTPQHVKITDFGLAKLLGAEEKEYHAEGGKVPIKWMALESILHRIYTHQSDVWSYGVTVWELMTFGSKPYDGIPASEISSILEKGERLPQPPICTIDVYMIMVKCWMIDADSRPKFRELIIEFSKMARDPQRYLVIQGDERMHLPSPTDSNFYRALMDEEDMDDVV
T6 sequence (P00519 whole entry F317L): as the sequence (P00519 whole entry F317I) above, with I317L counted along it
T14 sequence (Q04912 25-1400): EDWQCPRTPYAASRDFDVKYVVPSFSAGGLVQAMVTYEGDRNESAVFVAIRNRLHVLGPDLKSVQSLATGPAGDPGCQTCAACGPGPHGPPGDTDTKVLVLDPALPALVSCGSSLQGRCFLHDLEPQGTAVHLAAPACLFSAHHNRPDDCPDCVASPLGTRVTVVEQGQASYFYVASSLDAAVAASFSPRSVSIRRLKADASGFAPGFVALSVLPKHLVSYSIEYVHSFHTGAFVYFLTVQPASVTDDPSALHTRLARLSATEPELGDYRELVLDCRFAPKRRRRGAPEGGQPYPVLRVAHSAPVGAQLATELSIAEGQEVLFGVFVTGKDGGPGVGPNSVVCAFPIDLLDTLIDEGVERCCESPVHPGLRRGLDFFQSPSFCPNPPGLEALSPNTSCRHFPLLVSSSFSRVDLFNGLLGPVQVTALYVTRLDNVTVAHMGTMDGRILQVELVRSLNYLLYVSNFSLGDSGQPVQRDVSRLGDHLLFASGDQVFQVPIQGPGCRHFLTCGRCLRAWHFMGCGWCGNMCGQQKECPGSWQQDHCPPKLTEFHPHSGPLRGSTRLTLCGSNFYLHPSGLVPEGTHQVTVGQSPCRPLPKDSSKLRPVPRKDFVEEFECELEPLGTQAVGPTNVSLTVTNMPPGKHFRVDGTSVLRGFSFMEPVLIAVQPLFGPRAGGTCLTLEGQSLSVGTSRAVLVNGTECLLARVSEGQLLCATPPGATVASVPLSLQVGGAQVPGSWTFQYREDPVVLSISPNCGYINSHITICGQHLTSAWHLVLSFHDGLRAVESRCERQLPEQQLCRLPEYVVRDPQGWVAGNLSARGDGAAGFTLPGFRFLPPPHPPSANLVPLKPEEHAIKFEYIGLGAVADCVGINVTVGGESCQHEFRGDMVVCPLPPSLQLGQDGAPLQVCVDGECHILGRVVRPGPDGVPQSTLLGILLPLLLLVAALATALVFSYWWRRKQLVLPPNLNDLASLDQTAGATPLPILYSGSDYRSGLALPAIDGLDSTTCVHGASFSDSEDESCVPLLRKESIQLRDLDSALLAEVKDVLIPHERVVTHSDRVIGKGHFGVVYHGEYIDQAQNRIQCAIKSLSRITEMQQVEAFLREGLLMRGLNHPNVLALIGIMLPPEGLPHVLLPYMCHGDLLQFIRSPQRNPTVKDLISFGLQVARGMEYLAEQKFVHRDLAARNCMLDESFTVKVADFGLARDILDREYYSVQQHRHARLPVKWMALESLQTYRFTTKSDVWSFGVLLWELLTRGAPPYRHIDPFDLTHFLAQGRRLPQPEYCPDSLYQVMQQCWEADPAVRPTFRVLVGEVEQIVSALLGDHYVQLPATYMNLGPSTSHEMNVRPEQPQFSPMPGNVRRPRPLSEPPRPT
T2 sequence (Q86Z02 whole entry): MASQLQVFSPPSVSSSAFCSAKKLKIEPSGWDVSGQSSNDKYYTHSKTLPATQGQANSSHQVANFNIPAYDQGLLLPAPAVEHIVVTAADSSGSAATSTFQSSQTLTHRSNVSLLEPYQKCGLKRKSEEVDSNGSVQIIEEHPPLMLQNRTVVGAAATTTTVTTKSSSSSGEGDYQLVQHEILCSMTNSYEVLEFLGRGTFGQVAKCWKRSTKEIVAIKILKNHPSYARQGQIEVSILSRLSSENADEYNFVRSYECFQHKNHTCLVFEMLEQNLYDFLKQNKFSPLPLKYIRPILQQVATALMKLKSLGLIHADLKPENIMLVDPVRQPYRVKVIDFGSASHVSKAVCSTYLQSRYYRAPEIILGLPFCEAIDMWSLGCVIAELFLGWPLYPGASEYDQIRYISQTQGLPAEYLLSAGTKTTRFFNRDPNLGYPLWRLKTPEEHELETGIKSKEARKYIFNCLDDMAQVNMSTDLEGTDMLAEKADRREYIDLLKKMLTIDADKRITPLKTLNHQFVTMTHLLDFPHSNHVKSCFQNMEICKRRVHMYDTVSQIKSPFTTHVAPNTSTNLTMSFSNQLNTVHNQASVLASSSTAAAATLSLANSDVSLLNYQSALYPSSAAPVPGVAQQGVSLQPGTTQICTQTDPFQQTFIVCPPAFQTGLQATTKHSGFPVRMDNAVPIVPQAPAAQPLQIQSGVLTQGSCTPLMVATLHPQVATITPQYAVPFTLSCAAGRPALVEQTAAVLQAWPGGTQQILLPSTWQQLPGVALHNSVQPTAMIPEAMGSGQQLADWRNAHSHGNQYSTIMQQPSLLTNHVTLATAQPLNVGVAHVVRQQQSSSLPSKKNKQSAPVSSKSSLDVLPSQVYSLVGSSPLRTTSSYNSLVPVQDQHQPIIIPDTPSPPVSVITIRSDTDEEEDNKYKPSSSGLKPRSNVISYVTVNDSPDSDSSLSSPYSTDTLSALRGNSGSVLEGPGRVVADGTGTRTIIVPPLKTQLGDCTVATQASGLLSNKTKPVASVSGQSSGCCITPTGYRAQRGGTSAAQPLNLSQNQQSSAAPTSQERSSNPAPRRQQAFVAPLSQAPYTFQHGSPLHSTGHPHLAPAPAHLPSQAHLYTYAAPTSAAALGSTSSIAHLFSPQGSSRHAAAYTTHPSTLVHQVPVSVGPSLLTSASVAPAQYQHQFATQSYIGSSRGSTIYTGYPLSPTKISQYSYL

## COc1ccc(-c2cc3nccn3c(Nc3ncccc3C(N)=O)n2)cc1OC.Cl.Cl [BAY61-3606, 2-[7-(3,4-dimethoxyphenyl)-imidazo [1,2-c]pyrimidin-5-ylamino] nicotinamide dihydrochloride, reference compound]
[1]
  pIC50: 6.80
[2]
  pIC50: 5.37

## COc1ccccc1Nc1nc(-c2ccc(OC)c(OC)c2)cc2nccn12 [BAY derivative 6]
[3]
  in vitro kinase activity of MAP4K2, inhibition: lost its ability to effectively inhibit the in vitro kinase activity of MAP4K2
[4]
  % binding compared to no inhibitor control: 35%
[5]
  % binding compared to no inhibitor control: 100%
[6]
  % binding compared to no inhibitor control: 100%
[7]
  % binding compared to no inhibitor control: 86%
[8]
  % binding compared to no inhibitor control: 100%
[9]
  % binding compared to no inhibitor control: 100%
[10]
  % binding compared to no inhibitor control: 43%
[11]
  % binding compared to no inhibitor control: 67%
[12]
  % binding compared to no inhibitor control: 74%
[13]
  % binding compared to no inhibitor control: 100%
[14]
  % binding compared to no inhibitor control: 100%
